Assay results: ChEMBL document CHEMBL1135180, “Synthesis and anti-influenza virus activity of 4-guanidino-7-substituted Neu5Ac2en derivatives” (Bioorg Med Chem Lett, 2002)
In brackets after ≈: the same amount, converted by molar mass.

How the values were obtained:
Influenza A virus = assay: Inhibition of plaque formation; assay type: functional, organism-based
[1] = target: Neuraminidase (Influenza A virus (A/Puerto Rico/8/1934(H1N1)), UniProt P03468); assay: Inhibition of sialidase activity; assay type: functional, Influenza A virus (strain: A/PR/8/34)
Neuraminidase (Influenza A virus (A/Puerto Rico/8/1934(H1N1)), UniProt P03468), sequence (P03468 whole entry): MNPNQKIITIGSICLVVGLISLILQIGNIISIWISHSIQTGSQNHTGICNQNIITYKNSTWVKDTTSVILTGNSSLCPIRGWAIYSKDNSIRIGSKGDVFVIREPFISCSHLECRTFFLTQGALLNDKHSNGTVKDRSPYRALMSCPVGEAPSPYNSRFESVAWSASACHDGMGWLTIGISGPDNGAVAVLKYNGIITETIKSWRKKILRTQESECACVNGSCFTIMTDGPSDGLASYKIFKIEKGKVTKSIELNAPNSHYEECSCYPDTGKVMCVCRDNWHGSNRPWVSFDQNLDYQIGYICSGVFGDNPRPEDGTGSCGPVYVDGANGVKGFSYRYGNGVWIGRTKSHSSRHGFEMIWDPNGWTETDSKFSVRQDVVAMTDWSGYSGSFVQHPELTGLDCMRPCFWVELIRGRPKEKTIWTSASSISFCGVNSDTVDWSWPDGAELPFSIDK

## CCCCCCCCCCCCCCCC(=O)N[C@@H]([C@@H]1OC(C(=O)O)=C[C@H](N=C(N)N)[C@H]1NC(C)=O)[C@H](O)CO.O=C(O)C(F)(F)F
Influenza A virus
  IC50: 80 ng/mL
[1]
  IC50: 68.7 nM

## CC(=O)N[C@H]1[C@H]([C@H](F)[C@H](O)CO)OC(C(=O)O)=C[C@@H]1NC(=N)N.O=C(O)C(F)(F)F
Influenza A virus
  IC50: 1.8 ng/mL
[1]
  IC50: 1.78 nM

## CC(=O)N[C@H]1[C@H]([C@H](N)[C@H](O)CO)OC(C(=O)O)=C[C@@H]1NC(=N)N.O=C(O)C(F)(F)F
Influenza A virus
  IC50: 20 ng/mL
[1]
  IC50: 84 nM

## CC(=O)N[C@H]1[C@H]([C@H](N=[N+]=[N-])[C@H](O)CO)OC(C(=O)O)=C[C@@H]1NC(=N)N.O=C(O)C(F)(F)F
Influenza A virus
  IC50: 0.3 ng/mL
[1]
  IC50: 3.39 nM

## CC(=O)N[C@@H]1[C@@H](N=C(N)N)C=C(C(=O)O)O[C@H]1C[C@H](O)CO.O=C(O)C(F)(F)F
Influenza A virus
  IC50: 10 ng/mL
[1]
  IC50: 93 nM

## CO[C@@H]([C@@H]1OC(C(=O)O)=C[C@H](N=C(N)N)[C@H]1NC(C)=O)[C@H](O)CO.O=C(O)C(F)(F)F
Influenza A virus
  IC50: 3 ng/mL

## CC(=O)N[C@@H]([C@@H]1OC(C(=O)O)=C[C@H](N=C(N)N)[C@H]1NC(C)=O)[C@H](O)CO
[1]
  IC50: 37.1 nM

## CCCCCCCC(=O)N[C@@H]([C@@H]1OC(C(=O)O)=C[C@H](N=C(N)N)[C@H]1NC(C)=O)[C@H](O)CO.O=C(O)C(F)(F)F
Influenza A virus
  IC50: 100 ng/mL
[1]
  IC50: 84 nM

## CCO[C@@H]([C@@H]1OC(C(=O)O)=C[C@H](N=C(N)N)[C@H]1NC(C)=O)[C@H](O)CO.O=C(O)C(F)(F)F
Influenza A virus
  IC50: 0.7 ng/mL
[1]
  IC50: 30.8 nM

## CCC(=O)N[C@@H]([C@@H]1OC(C(=O)O)=C[C@H](N=C(N)N)[C@H]1NC(C)=O)[C@H](O)CO.O=C(O)C(F)(F)F
Influenza A virus
  IC50: 4 ng/mL
[1]
  IC50: 19.9 nM

## CC(=O)N[C@@H]1[C@@H](NC(=N)N)C=C(C(=O)O)O[C@H]1C(F)(F)[C@H](O)CO.O=C(O)C(F)(F)F
Influenza A virus
  IC50: 400 ng/mL
[1]
  IC50: 1030 nM

## CC(=O)N[C@H]1[C@H]([C@H](O)[C@H](O)CO)OC(C(=O)O)=C[C@@H]1NC(=N)N [ZANAMIVIR]
Influenza A virus
  IC50: 1 ng/mL (≈ 3.01 nM)
